In EP4222493B1, “SCREENING TEST FOR CATSPER MODULATORS” (Westfälische Wilhelms-Universität Münster, priority 2020, dated 2022):

Biological target: T1, CatSper channel (Homo sapiens, UniProt Q7RTX7+Q86XQ3+Q8NEC5+Q96P56)
T1 construct: endogenous in cells; host or cells: Sperm cells in untreated ejaculate from a healthy volunteer
Test: CatSper modulation test: sperm motility in a test solution essentially free of free calcium, determined by light microscopy
Assay type: cell-based
Details: for motility: after about 10 minutes, normalized (first reading in the Ca2+-containing control = 100%)
Method: • Fig. 1: Time course of sperm motility in the CatSper modulation test. […] Sperm cells were exposed to a calcium-free buffer (grey curves) containing different concentrations of the exemplified CatSper inhibitor RU1968 at time t = 0 minutes up to t = 90 minutes. A control sample (black, HTF) was kept under Ca^2+-containing conditions. During a subsequent incubation at 37 °C, the motility in the sperm population was determined by light microscopy; the data was normalized (first reading in the Ca^2+-containing control = 100%).
The Ca^2+-containing solution being used in Figure 1 of the present invention corresponds to the HTF buffer (human tubular fluid) used for years in research with spermatozoa (Strünker et al. 2011, Nature 471, 382-386). The calcium-free solution is also based on this buffer. It is very likely that the test can also be carried out with buffer solutions of a different composition, as long as they are kept in the physiological range and comprise the herein mentioned ranges or values for calcium and magnesium. Table 1: Composition of the Ca2+-containing and the Ca2+-free solutions being used in the method of the present invention.
For performing a CatSper-Screening-Test, 178 µl of the calcium-free solution and 2 µl of the solvent used to prepare the test compound solution is used to produce the control solution (calcium-free solution without any test compound). A test solution is produced by adding 178 µl of the calcium-free solution and 2 µl of the test compound solution together. Optionally, another 180 µl of the calcium-containing solution (without any test compound) may further be used in another vial (see particular composition above in Tab. 1). The solutions are then stored at 4 °C and heated to 37 °C before use to warm up the solutions.
A spermatozoa (semen) sample is then obtained from a subject who is a healthy volunteer. A volume of 20 µl of the ejaculate is added to the calcium-free control, calcium-free test and calcium-containing solutions in each micro reaction tube. By low-speed vortex mixing or repeatedly inverting the micro reaction tubes, a homogeneous spermatozoa suspension is generated. Both micro reaction tubes are then incubated at 37 °C for 15 min. After incubation, the mixing step is repeated and the spermatozoa motility is determined for the conditions by counting a total number of 200 sperm cells. The fraction of motile sperm is then compared for the calcium-free control solution with and without any test compound. If a difference in the fraction of motile sperm is determined the test compound is identified as inhibitor / activator or no modulator of the CatSper activity.

Row | motility (3 µM inhibitor in Ca2+-free buffer, 37 °C, Fig. 2) | motility (6 µM inhibitor in Ca2+-free buffer, 37 °C, Fig. 2) [%] | motility (12 µM inhibitor in Ca2+-free buffer, 37 °C, Fig. 2) | Compound | effect on CatSper ion channel activity in the CatSper-Screening-Test (10 µM, calcium-free solution, Fig. 1) | behaviour of sperm cells from healthy volunteers in the CatSper-Screening-Test (30 µM, calcium-free solution, Fig. 1) | sperm cell motility under essentially Ca2+-free conditions (different concentrations, t = 0 minutes up to t = 90 minutes, 37 °C, Fig. 2)
1 | – | – | – | CC(=O)[C@H]1CC[C@H]2[C@@H]3CCC4=CC(=O)CC[C@]4(C)[C@H]3CC[C@]12C [Progesterone, progesterone] | activates CatSper ion channel activity | – | –
2 | about 106% | ~110 | about 116% | C[C@@H](NCCN(C)C)[C@@H]1CC[C@@H]2[C@H]3CCc4cc(O)ccc4[C@@H]3CC[C@]21C [RU1968] | – | behave in the same way as sperm from patients with CatSper dysfunction | modulates the sperm cell motility in a concentration-dependent manner
